The text below walks through data of ChEMBL document CHEMBL5236638, “Optimization of First-in-Class Dual-Acting FFAR1/FFAR4 Allosteric Modulators with Novel Mode of Action” (ACS Med Chem Lett, 2022).

What all share (assay type): cell-based
For assay [1], the target named is Free fatty acid receptor 1 (Homo sapiens, UniProt O14842). The assay is described as follows: Agonist activity at N-terminal FLAG tagged human FFAR1 transfected in African green monkey COS-7 cells assessed as accumulation of inositol phosphate incubated for 90 mins by TopCount NXT counter based analysis.
For assay [2], the target named is T1, Free fatty acid receptor 4 (Homo sapiens, UniProt Q5NUL3).
T1 sequence (Q5NUL3 whole entry): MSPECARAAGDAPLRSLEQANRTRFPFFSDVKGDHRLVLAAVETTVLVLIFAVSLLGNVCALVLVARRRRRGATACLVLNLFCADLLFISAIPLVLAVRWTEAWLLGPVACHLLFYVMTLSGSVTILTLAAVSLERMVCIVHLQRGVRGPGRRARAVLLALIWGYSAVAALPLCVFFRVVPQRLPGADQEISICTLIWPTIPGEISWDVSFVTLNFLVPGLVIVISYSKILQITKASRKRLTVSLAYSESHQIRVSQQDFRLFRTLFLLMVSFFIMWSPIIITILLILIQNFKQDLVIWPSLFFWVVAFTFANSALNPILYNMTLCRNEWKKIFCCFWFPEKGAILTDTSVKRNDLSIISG
The assay is described as follows: Agonist activity at N-terminal FLAG tagged human FFAR4 transfected in African green monkey COS-7 cells assessed as accumulation of inositol phosphate incubated for 90 mins by TopCount NXT counter based analysis.

Assay [3] addresses T2, Free fatty acid receptor 4 (Homo sapiens) (UniProt Q5NUL3).
T2 sequence (whole entry): T1 sequence (Q5NUL3 whole entry)
The assay is described as follows: Agonist activity at N-terminal FLAG tagged human FFAR4 transfected in African green monkey COS-7 cells assessed as accumulation of inositol phosphate at 10 uM incubated for 90 mins by TopCount NXT counter based analysis relative to control.

Chain of Free fatty acid receptor 1 (O14842 whole entry): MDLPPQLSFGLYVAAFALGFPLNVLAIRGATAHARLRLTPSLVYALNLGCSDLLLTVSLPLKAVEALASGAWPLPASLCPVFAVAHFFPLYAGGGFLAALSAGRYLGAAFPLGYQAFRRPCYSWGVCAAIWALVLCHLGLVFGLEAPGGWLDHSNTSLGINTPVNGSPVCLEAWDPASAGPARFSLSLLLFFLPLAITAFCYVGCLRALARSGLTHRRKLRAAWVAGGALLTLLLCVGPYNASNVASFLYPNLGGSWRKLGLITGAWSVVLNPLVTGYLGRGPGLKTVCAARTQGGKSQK

Usually EC50 stands for the concentration giving half of the maximal effect. Turning to `Cc1ccc(Nc2nc(N)nc(COc3cc(N4CCCC4=O)cc(C(F)(F)F)c3)n2)cc1Cl`, the EC50 in assay [1] amounted to 3190 nM.
`Cc1cc(OCc2nc(N)nc(NCC(c3c(F)cccc3F)N(C)C)n2)cc(N2CCCC2=O)c1` (configuration not stated): the EC50 in assay [1] worked out at 7430 nM.
The term Emax denotes the maximal effect, on the per cent scale that the assay sets. In the case of `Cc1cc(OCc2nc(N)nc(NCCc3cccc(C#N)c3)n2)cc(N2CCCC2=O)c1`, the figures for the concentration for a half-maximal effect (EC50) in assay [1] and in assay [2] were 831 nM and 552 nM, respectively. Besides, the Emax in assay [3] turned out to be 17%.
Consider `Cc1ccc(Nc2nc(N)nc(COc3ccc4c(C)cc(=O)oc4c3)n2)cc1`, for which the figures for the concentration for a half-maximal effect (EC50) in assay [1] and in assay [2] were 1790 nM and 1210 nM, respectively. Besides, the Emax in assay [3] was 39%.
In the case of `Cc1ccc(Nc2nc(N)nc(COc3ccc4c(C)cc(=O)oc4c3)n2)cc1C`, the EC50 in assay [1] is 210 nM.
In the case of `Cc1cc(OCc2nc(N)nc(NCCc3ccccc3)n2)cc(N2CCCC2=O)c1`, the values for the EC50 in assay [1] and in assay [2] were 25 nM and 33 nM, respectively. Moreover, in assay [3], the Emax is 38%.
Consider `Cc1cc(=O)oc2cc(OCc3nc(N)nc(Nc4ccc(F)cc4)n3)ccc12`, for which the 50% effective concentration (EC50) in assay [1] was 18300 nM.
As for `Cc1cc(OCc2nc(N)nc(NCCc3ccccc3Cl)n2)cc(N2CCCC2=O)c1`, the EC50 in assay [1] came out at 6 nM; in assay [2], 3 nM. For the same compound, the Emax in assay [3] is 33%.
The matching figures for `Cc1cc(OCc2nc(N)nc(NCCc3ccccc3OC(F)F)n2)cc(N2CCCC2=O)c1`: 108 nM, 178 nM and 30%.
On to `Cc1cc(OCc2nc(N)nc(NCCc3ccc(Cl)c(Cl)c3)n2)cc(N2CCCC2=O)c1`, for which the results for the EC50 in assay [1] and in assay [2] were 16 nM and 55 nM, respectively. The Emax in assay [3] was found to be 23%.
Consider `Cc1ccc(Nc2nc(N)nc(COc3cc(N4CCCC4=O)ccc3C)n2)cc1Cl`, for which the EC50 worked out at 7450 nM in assay [1] and 18200 nM in assay [2]. In addition, in assay [3] (filed as agonist), the maximal effect (Emax) was found to be 43%.
`Cc1cc(=O)oc2cc(OCc3nc(N)nc(Nc4ccc(C5CC5)cc4)n3)ccc12`: the EC50 in assay [1] is 700 nM.
On to `Cc1cc(OCc2nc(N)nc(NCCc3cc(Cl)cc(Cl)c3)n2)cc(N2CCCC2=O)c1`, for which the EC50 in assay [1] is 4 nM; in assay [2], 7 nM. The Emax in assay [3] (filed as agonist) was 49%.
The matching figures for `CCc1ccc(Nc2nc(N)nc(COc3ccc4c(C)cc(=O)oc4c3)n2)cc1Cl`: 160 nM, 560 nM and 48%.
As to `Cc1cc(=O)oc2cc(OCc3nc(N)nc(Nc4ccc5ccccc5c4)n3)ccc12`, the half-maximal effective concentration (EC50) in assay [1] came out at 700 nM.
For `COc1cc(OCc2nc(N)nc(Nc3ccc(C)c(Cl)c3)n2)cc(N2CCCC2=O)c1`, the half-maximal effective concentration (EC50) stood at 1800 nM in assay [1] and 600 nM in assay [2]. Also, the Emax in assay [3] (filed as agonist) was found to be 43%.
For `Cc1cc(=O)oc2cc(OCc3nc(N)nc(Nc4ccc(Cl)c(Cl)c4)n3)ccc12`, the EC50 in assay [1] stood at 780 nM; in assay [2] it was 360 nM.
Consider `CCc1cc(=O)oc2cc(OCc3nc(N)nc(Nc4ccc(C)cc4)n3)ccc12`, for which the EC50 in assay [1] stood at 2640 nM; in assay [2], 1320 nM. Further, in assay [3], the Emax was determined as 37%.
As for `Cc1cc(Nc2nc(N)nc(COc3ccc4c(C)cc(=O)oc4c3)n2)ccc1Cl`, the figures for the EC50 in assay [1] and in assay [2] were 240 nM and 600 nM, respectively. Further, in assay [3] (filed as agonist), the Emax came out at 48%.
Take `Cc1cc(OCc2nc(N)nc(NCCc3ccccc3OC(F)(F)F)n2)cc(N2CCCC2=O)c1`: the EC50 in assay [1] was 20 nM; in assay [2] it was 37 nM. The Emax in assay [3] was 29%.
In the case of `Cc1cc(=O)oc2cc(OCc3nc(N)nc(Nc4cccc(Cl)c4)n3)ccc12`, the EC50 in assay [1] came out at 1110 nM.
On to `Cc1ccc(Nc2nc(N)nc(COc3cccc(N4CCCCC4=O)c3)n2)cc1Cl`, for which the EC50 in assay [1] is 22400 nM; in assay [2], 16600 nM. Moreover, the Emax in assay [3] (filed as agonist) was found to be 66%.
The like results for `Cc1cc(OCc2nc(N)nc(NCCc3cc(C)ccc3F)n2)cc(N2CCCC2=O)c1` were, in that order, 3 nM, 386 nM and 40%.
The matching figures for `COc1cccc(CCNc2nc(N)nc(COc3cc(C)cc(N4CCCC4=O)c3)n2)c1`: 12 nM, 14 nM and 46%.
Turning to `COc1ccccc1CCNc1nc(N)nc(COc2cc(C)cc(N3CCCC3=O)c2)n1`, the EC50 in assay [1] was determined as 34 nM; in assay [2], 14 nM. Further, in assay [3], the Emax stood at 23%.
The like results for `Cc1cc(OCc2nc(N)nc(NCCc3ccc(Cl)c(C)c3)n2)cc(N2CCCC2=O)c1` were, in that order, 14 nM, 4 nM and 30%.
As to `Cc1ccc(Nc2nc(N)nc(COc3cc(F)cc(N4CCCC4=O)c3)n2)cc1Cl`, the results for the EC50 in assay [1] and in assay [2] were 1800 nM and 1200 nM, respectively. For the same compound, in assay [3] (filed as agonist), the Emax is 47%.
With `Cc1cc(OCc2nc(N)nc(NCCc3cccc(OC(F)F)c3)n2)cc(N2CCCC2=O)c1`, the EC50 in assay [1] is 5 nM; in assay [2], 10 nM. Also, the Emax in assay [3] was determined as 28%.
On to `Cc1ccc(Nc2nc(N)nc(COc3ccc4c5c(c(=O)oc4c3)CCC5)n2)cc1`, for which, in assay [1], the EC50 is 2220 nM.
As for `Cc1cc(OCc2nc(N)nc(NCCc3cccc(C(F)(F)F)c3)n2)cc(N2CCCC2=O)c1`, the concentration giving a half-maximal response (EC50) in assay [1] was determined as 12 nM; in assay [2] it was 10 nM. Besides, in assay [3], the Emax was found to be 35%.
For the compound `Cc1cc(OCc2nc(N)nc(NCC3(c4cccc(Cl)c4)CC3)n2)cc(N2CCCC2=O)c1`, the EC50 in assay [1] is 48 nM.
For the compound `Cc1ccc(Nc2nc(N)nc(COc3ccc4c(C(F)F)cc(=O)oc4c3)n2)cc1`, the EC50 in assay [1] came out at 3180 nM; in assay [2], 1570 nM. Moreover, the Emax in assay [3] was 27%.
The matching figures for `COc1ccc(F)cc1CCNc1nc(N)nc(COc2cc(C)cc(N3CCCC3=O)c2)n1`: 469 nM, 134 nM and 30%.
For the compound `Cc1cc(OCc2nc(N)nc(NCCc3ccccc3F)n2)cc(N2CCCC2=O)c1`, in assay [1], the EC50 was determined as 11 nM.
Take `Cc1cc(OCc2nc(N)nc(NCCc3c(F)cccc3F)n2)cc(N2CCCC2=O)c1`: the EC50 in assay [1] was 3 nM; in assay [2] it was 9 nM. The Emax in assay [3] (filed as agonist) is 46%.
Consider `Cc1ccc(Nc2nc(N)nc(COc3ccc4ccc(=O)oc4c3)n2)cc1`, for which the figures for the EC50 in assay [1] and in assay [2] were 1280 nM and 4390 nM, respectively. Also, the Emax in assay [3] (filed as agonist) was determined as 49%.
Regarding `Cc1cc(=O)oc2cc(OCc3nc(N)nc(NCc4ccc(F)cc4)n3)ccc12`, the EC50 in assay [1] came to 7820 nM.
For `COc1ccc(CCNc2nc(N)nc(COc3cc(C)cc(N4CCCC4=O)c3)n2)cc1`, the EC50 was 1460 nM in assay [1] and 377 nM in assay [2]. For the same compound, the maximal effect (Emax) in assay [3] came to 34%.
As for `Cc1cc(OCc2nc(N)nc(Nc3ccc(C)c(Cl)c3)n2)cc(N2CCCC2=O)c1`, the EC50 in assay [1] stood at 20 nM; in assay [2], 600 nM. Also, the Emax in assay [3] (filed as agonist) came out at 50%.
For `Cc1c(Cl)cc(Nc2nc(N)nc(COc3ccc4c(C)cc(=O)oc4c3)n2)cc1Cl`, the results for the EC50 in assay [1] and in assay [2] were 600 nM and 1270 nM, respectively. For the same compound, the Emax in assay [3] (filed as agonist) came to 68%.
Take `Cc1ccc(Nc2nc(N)nc(COc3cccc(N4CCCC4=O)c3C)n2)cc1Cl`: the EC50 turned out to be 11100 nM in assay [1] and 14400 nM in assay [2]. The Emax in assay [3] (filed as agonist) worked out at 46%.
As to `Cc1ccc(Nc2nc(N)nc(COc3cc(C#N)cc(N4CCCC4=O)c3)n2)cc1Cl`, the half-maximal effective concentration (EC50) was found to be 4170 nM in assay [1] and 14300 nM in assay [2]. Besides, the Emax in assay [3] stood at 26%.
The like results for `Cc1cc(OCc2nc(N)nc(NCCc3ccccc3C)n2)cc(N2CCCC2=O)c1` were, in that order, 11 nM, 17 nM and 35%.
`Cc1ccc(Nc2nc(N)nc(COc3cccc(N4CCCC4=O)c3F)n2)cc1Cl`: the EC50 in assay [1] was found to be 14100 nM.
Take `Cc1cc(=O)oc2cc(OCc3nc(N)nc(Nc4ccc(C(C)C)cc4)n3)ccc12`: the EC50 in assay [1] came to 460 nM; in assay [2] it was 1200 nM. Besides, in assay [3] (filed as agonist), the Emax was found to be 75%.
In the case of `Cc1cccc(CCNc2nc(N)nc(COc3cc(C)cc(N4CCCC4=O)c3)n2)c1`, the EC50 in assay [1] stood at 7 nM.
Regarding `Cc1cc(OCc2nc(N)nc(NCCc3c(C)cccc3C)n2)cc(N2CCCC2=O)c1`, the values for the EC50 in assay [1] and in assay [2] were 25 nM and 72 nM, respectively. Besides, the Emax in assay [3] (filed as agonist) worked out at 44%.
The matching figures for `Cc1ccc(Nc2nc(N)nc(COc3ccc(Cl)c(N4CCCC4=O)c3)n2)cc1Cl`: 2450 nM, 3030 nM and 42%.
Take `Cc1ccc(Nc2nc(N)nc(COc3cc(N4CCCC4=O)cc(C(C)(C)C)c3)n2)cc1Cl`: in assay [2], the half-maximal effective concentration (EC50) came to 640 nM.
In the case of `Cc1cc(=O)oc2cc(OCc3nc(N)nc(Nc4ccc(Cl)cc4)n3)ccc12`, the EC50 in assay [1] amounted to 32500 nM.
`Cc1cc(=O)oc2cc(OCc3nc(N)nc(Nc4ccc5c(c4)COC5)n3)ccc12`: the EC50 in assay [1] amounted to 1330 nM.
Consider `Cc1cc(OCc2nc(N)nc(NCCc3cccc(S(F)(F)(F)(F)F)c3)n2)cc(N2CCCC2=O)c1`, for which, in assay [1], the EC50 is 32 nM. Also, the Emax in assay [3] (filed as agonist) amounted to 95%.
As to `Cc1ccc(Nc2nc(N)nc(COc3cc(OC(F)(F)F)cc(N4CCCC4=O)c3)n2)cc1Cl`, the EC50 in assay [2] stood at 2190 nM. Also, the Emax in assay [3] was 38%.
Regarding `Cc1ccc(Nc2nc(N)nc(COc3cccc(N4CCCS4(=O)=O)c3)n2)cc1Cl`, the EC50 in assay [1] was 9700 nM.
Still for that read-out and setting: then `Cc1cc(OCc2nc(N)nc(NCCc3ccc(Cl)cc3)n2)cc(N2CCCC2=O)c1`, with 193 nM; and `CCCc1cc(=O)oc2cc(OCc3nc(N)nc(Nc4ccc(C)cc4)n3)ccc12`, with 2900 nM.
